Reference: US20240240224A1, “FLUORESCENT D-TYPE AMINO ACID METABOLISM MARKER-BASED METHOD FOR DETECTING ANTIBACTERIAL DRUG SENSITIVITY TEST” (priority 2020, published 2024)
In brackets after ≈: the same amount, converted by molar mass.

How the values were obtained:
[1] = test system: E.coli 1113; assay: FDAA metabolic labeling susceptibility test (Cy5-DAA probe, flow cytometry); assay type: cell-based, Escherichia coli; conditions: Escherichia coli, 1113, 2 h, read-out: MIC, FDAA
Procedure: (§1) The specific experimental steps are as follows: • 1. Take the colony to be tested that has been cultured overnight on the plate and fully mix it in normal saline to make a uniform bacterial solution. Dilute it into CAMHB medium to make a bacterial solution with OD600=0.05. • 2. Add 45 μl antibiotic solutions to be tested of different concentrations to 96-well plates (see Table 3 for antibiotic concentration gradient settings). • 3. Add 50 μl of bacterial solution prepared in Step 1 to the 96-well plate and mix well. • 4.5 μl of 10 mM Cy5-DAA probe was added to each well (final concentration was 0.15 mM, and its structure was shown in FIG. 1). After mixing, the probe was incubated for 2 hours in the dark. • 5. After dilution with 200 μl PBS solution, the fluorescence intensity of each sample was detected by flow cytometry. The flow detection results are shown in the attached FIG. 4-5, showing the curve of antibiotic concentration gradient and fluorescence intensity, and the MIC (minimum inhibitory concentration) is obtained by referring to this curve.

[2] = test system: E.coli 1146; assay: as above; assay type: cell-based, Escherichia coli; conditions: Escherichia coli, 1146, 2 h, read-out: MIC, FDAA
Procedure: as §1

[3] = test system: E.coli 1113; assay: Vitek 2 drug sensitivity test; assay type: cell-based, Escherichia coli; for Sensibility: key: S: Drug sensitive; R: Drug resistance
[4] = test system: E.coli 1146; assay: Vitek 2 drug sensitivity test; assay type: cell-based, Escherichia coli; for Sensibility: key: S: Drug sensitive; R: Drug resistance
[5] = test system: E. coli Ec11; assay: BMD susceptibility test; assay type: cell-based, Escherichia coli; conditions: unit assumed
[6] = test system: E. coli Ec11; assay: FaAST (FDAA metabolic labeling); assay type: cell-based, Escherichia coli; conditions: unit assumed
Procedure: as §1
(§2) Antibiotic resistant strains are shown in bold in the table below.

[7] = test system: Ec ATCC 25922; assay: FaAST (FDAA metabolic labeling); assay type: cell-based, Escherichia coli; conditions: unit assumed
Procedure: as §1, §2

[8] = test system: E. coli Ec13; assay: BMD susceptibility test; assay type: cell-based, Escherichia coli; conditions: unit assumed
[9] = test system: E. coli Ec13; assay: FaAST (FDAA metabolic labeling); assay type: cell-based, Escherichia coli; conditions: unit assumed
Procedure: as §1, with “cytometry.” for “cytometry. The flow detection results are shown in the attached FIG. 4-5, showing the curve of antibiotic concentration gradient and fluorescence intensity, and the MIC (minimum inhibitory concentration) is obtained by referring to this curve.”

[10] = test system: Ec ATCC 25922; assay: BMD susceptibility test; assay type: cell-based, Escherichia coli; conditions: unit assumed
[11] = test system: A. baumannii Ab16; assay: BMD susceptibility test; assay type: cell-based, Acinetobacter baumannii; conditions: unit assumed
[12] = test system: A. baumannii Ab16; assay: FaAST (FDAA metabolic labeling); assay type: cell-based, Acinetobacter baumannii; conditions: unit assumed
Procedure: as §1, with “cytometry.” for “cytometry. The flow detection results are shown in the attached FIG. 4-5, showing the curve of antibiotic concentration gradient and fluorescence intensity, and the MIC (minimum inhibitory concentration) is obtained by referring to this curve.”

[13] = test system: A. baumannii Ab19; assay: BMD susceptibility test; assay type: cell-based, Acinetobacter baumannii; conditions: unit assumed
[14] = test system: A. baumannii Ab19; assay: FaAST (FDAA metabolic labeling); assay type: cell-based, Acinetobacter baumannii; conditions: unit assumed
Procedure: as §1, §2

[15] = test system: K. pneumoniae Kp6; assay: BMD susceptibility test; assay type: cell-based, Klebsiella pneumoniae; conditions: unit assumed
[16] = test system: K. pneumoniae Kp9; assay: BMD susceptibility test; assay type: cell-based, Klebsiella pneumoniae; conditions: unit assumed
[17] = test system: K. pneumoniae Kp6; assay: FaAST (FDAA metabolic labeling); assay type: cell-based, Klebsiella pneumoniae; conditions: unit assumed
Procedure: as §1, with “cytometry.” for “cytometry. The flow detection results are shown in the attached FIG. 4-5, showing the curve of antibiotic concentration gradient and fluorescence intensity, and the MIC (minimum inhibitory concentration) is obtained by referring to this curve.”

[18] = test system: K. pneumoniae Kp9; assay: FaAST (FDAA metabolic labeling); assay type: cell-based, Klebsiella pneumoniae; conditions: unit assumed
Procedure: as §1, with “cytometry.” for “cytometry. The flow detection results are shown in the attached FIG. 4-5, showing the curve of antibiotic concentration gradient and fluorescence intensity, and the MIC (minimum inhibitory concentration) is obtained by referring to this curve.”

[19] = test system: bacteria contained in alveolar lavage fluid; assay: FDAA metabolic labeling susceptibility test of alveolar lavage fluid (Cy5-DAA probe); assay type: cell-based; conditions: alveolar lavage fluid of patients with hospital acquired pneumonia, 2 hours
Procedure: (§3) With reference to the flow chart of the rapid detection method of antimicrobial susceptibility test based on FDAA metabolic markers shown in FIG. 3, FDAA is used for the detection of antimicrobial susceptibility test of alveolar lavage fluid. The specific experimental steps are as follows: • 1. Mix bronchoalveolar lavage fluid (BALF, 10 ml) of patients with hospital acquired pneumonia with cation regulated broth medium (CAMHB, 10 ml) of twice the concentration to prepare the bacterial fluid to be tested. • 2. Add 45 μl antibiotic solutions of different concentrations to the 96-well plate separately (see Table 1 for antibiotic concentration gradient settings). • 3. Add 50 μl of the bacterial solution prepared in step 1 to the 96-well plate and mix well. • 4. Add 5 μl of 10 mM Cy5-DAA probe (final concentration 0.15 mM, see FIG. 1 for its structure) into each well, mix well, and then cultivate in dark for 2 hours. • 5. Add 200 μl PBS solution for dilution, and then use flow cytometry to detect the fluorescence intensity of each sample.

[20] = test system: bacteria contained in alveolar lavage fluid; assay: Vitek 2 drug sensitivity test of alveolar lavage fluid; assay type: cell-based; for Sensibility: key: S: Drug sensitive; R: Drug resistance
[21] = test system: alveolar lavage fluid sample 0130, A. baumannii; assay: BMD susceptibility test of patient alveolar lavage fluid; assay type: cell-based, Acinetobacter baumannii; conditions: unit assumed
Text: (§4) The results of antimicrobial susceptibility test of alveolar lavage fluid of seven patients using FDAA and BMD methods are shown in the following table. The drug-resistant bacteria are shown in bold.

[22] = test system: alveolar lavage fluid sample 0206, A. baumannii; assay: as above; assay type: cell-based, Acinetobacter baumannii; conditions: unit assumed
Text: as §4

[23] = test system: alveolar lavage fluid sample 0219, A. baumannii; assay: as above; assay type: cell-based, Acinetobacter baumannii; conditions: unit assumed
Text: as §4

[24] = test system: alveolar lavage fluid sample 0130, A. baumannii; assay: FaAST (FDAA) susceptibility test of patient alveolar lavage fluid; assay type: cell-based, Acinetobacter baumannii; conditions: unit assumed
Procedure: as §3, §4

[25] = test system: alveolar lavage fluid sample 0204, A. baumannii; assay: as above; assay type: cell-based, Acinetobacter baumannii; conditions: unit assumed
Procedure: as §3, §4

[26] = test system: alveolar lavage fluid sample 0206, A. baumannii; assay: as above; assay type: cell-based, Acinetobacter baumannii; conditions: unit assumed
Procedure: as §3, §4

[27] = test system: alveolar lavage fluid sample 0219, A. baumannii; assay: as above; assay type: cell-based, Acinetobacter baumannii; conditions: unit assumed
Procedure: as §3, §4

[28] = test system: alveolar lavage fluid sample 0204, A. baumannii; assay: BMD susceptibility test of patient alveolar lavage fluid; assay type: cell-based, Acinetobacter baumannii; conditions: unit assumed
[29] = test system: alveolar lavage fluid sample 0203, K. pneumoniae; assay: as above; assay type: cell-based, Klebsiella pneumoniae; conditions: unit assumed
Text: as §4

[30] = test system: alveolar lavage fluid sample 0226, K. pneumoniae; assay: as above; assay type: cell-based, Klebsiella pneumoniae; conditions: unit assumed
Text: as §4

[31] = test system: alveolar lavage fluid sample 0203, K. pneumoniae; assay: FaAST (FDAA) susceptibility test of patient alveolar lavage fluid; assay type: cell-based, Klebsiella pneumoniae; conditions: unit assumed
Procedure: as §3, §4

[32] = test system: alveolar lavage fluid sample 0226, K. pneumoniae; assay: as above; assay type: cell-based, Klebsiella pneumoniae; conditions: unit assumed
Procedure: as §3, §4

[33] = test system: Ec ATCC 25922; conditions: cited from earlier work
[34] = test system: S. aureus ST398; assay: FDAA metabolic labeling susceptibility test (Cy5-DAA probe, flow cytometry); assay type: cell-based; conditions: Staphylococcus aureus; S. aureus ST398; Cy5-DAA probe, 2 hours; read-out: MIC, FDAA
Procedure: (§5) Take the colony to be tested that has been cultured overnight on the plate and fully mix it in normal saline to make a uniform bacterial solution. Dilute it into Cation-Adjusted Mueller Hinton Broth (CAMHB) culture medium to make a bacterial solution with OD600=0.05. • 2. Add 45 μl antibiotic solutions of different concentrations to 96-well plates (see Table 1 for antibiotic concentration gradient settings). • 3. Add 50 μl of the bacterial solution prepared in step 1 to the 96-well plate and mix well. • 4. Add 5 μl of 10 mM Cy5-DAA probe (final concentration 0.15 mM, see FIG. 1 for its structure) into each well, mix well, and cultivate in dark for 2 hours. • 5. Add 200 μl After PBS solution is diluted, the fluorescence intensity of each sample is detected by flow cytometry. The flow detection results are shown in FIG. 4-5, showing the curve of the change of antibiotic concentration gradient and fluorescence intensity. The MIC (minimum inhibitory concentration) can be obtained by referring to this curve.

[35] = test system: S. aureus ST59; assay: as above; assay type: cell-based; conditions: Staphylococcus aureus; S. aureus ST59; Cy5-DAA probe, 2 hours; read-out: MIC, FDAA
Procedure: as §5

[36] = test system: S. aureus ST5; assay: as above; assay type: cell-based; conditions: Staphylococcus aureus; S. aureus ST5; Cy5-DAA probe, 2 hours; read-out: MIC, FDAA
Procedure: as §5

[37] = test system: S. aureus ST5; assay: Vitek 2 drug sensitivity test; assay type: cell-based, Staphylococcus aureus; for Sensibility: key: S: Drug sensitive; R: Drug resistance
[38] = test system: S. aureus ST59; assay: Vitek 2 drug sensitivity test; assay type: cell-based, Staphylococcus aureus; for Sensibility: key: S: Drug sensitive; R: Drug resistance
[39] = test system: S. aureus ST398; assay: Vitek 2 drug sensitivity test; assay type: cell-based, Staphylococcus aureus; for Sensibility: key: S: Drug sensitive; R: Drug resistance

SMILES: CN(C)c1cc(NC(=O)CNC(C)(C)C)c(O)c2c1C[C@H]1C[C@H]3[C@H](N(C)C)C(O)=C(C(N)=O)C(=O)[C@@]3(O)C(O)=C1C2=O [Tigecycline, tigecycline]
- MIC [1]: 1 µg/mL (≈ 1.71 µM)
- MIC [2]: 0.25 µg/mL (≈ 0.427 µM)
- MIC, Vitek 2 [3]: < 1 µg/mL
- Sensibility [3]: S
- Sensibility [4]: S
- MIC ([4]; Escherichia coli): ≤ 0.25 µg/mL
- BMD (MIC) [5]: ≤ 0.25 µg/mL
- FaAST (MIC) [6]: ≤ 0.25 µg/mL
- FaAST (MIC) [7]: ≤ 0.25 µg/mL
- BMD (MIC) [8]: ≤ 0.25 µg/mL
- FaAST (MIC) [9]: ≤ 0.25 µg/mL
- BMD (MIC) [10]: ≤ 0.25 µg/mL
- BMD (MIC) [11]: ≤ 0.25 µg/mL
- FaAST (MIC) [12]: ≤ 0.25 µg/mL
- BMD (MIC) [13]: ≤ 0.25 µg/mL
- FaAST (MIC) [14]: 0.5 µg/mL
- BMD (MIC) [15]: ≤ 0.25 µg/mL
- BMD (MIC) [16]: 0.5 µg/mL
- FaAST (MIC) [17]: ≤ 0.25 µg/mL
- FaAST (MIC) [18]: 0.25 µg/mL
- MIC, FDAA [19]: 4 µg/mL (≈ 6.83 µM)
- MIC [20]: 2 µg/mL (≈ 3.41 µM)
- Sensibility [20]: S
- BMD (MIC) [21]: 2 µg/mL
- BMD (MIC) [22]: 1 µg/mL
- BMD (MIC) [23]: 1 µg/mL
- FaAST (MIC) [24]: 2 µg/mL
- FaAST (MIC) [25]: 0.5 µg/mL
- FaAST (MIC) [26]: 8 µg/mL
- FaAST (MIC) [27]: 64 µg/mL
- BMD (MIC) [28]: 0.5 µg/mL
- BMD (MIC) [29]: 1 µg/mL
- BMD (MIC) [30]: 1 µg/mL
- FaAST (MIC) [31]: 0.125 µg/mL
- FaAST (MIC) [32]: 0.5 µg/mL
- CLSI QC range [33]: 0.03-0.25

SMILES: Cc1onc(-c2ccccc2)c1C(=O)N[C@@H]1C(=O)N2[C@@H]1SC(C)(C)[C@@H]2C(=O)O [OX, oxacillin]
- MIC [34]: 0.25 µg/mL (≈ 0.623 µM)
- MIC [35]: 32 µg/mL (≈ 79.7 µM)
- MIC [36]: ≥ 1020 µg/mL
- Sensibility [37]: R
- MIC ([37]; Staphylococcus aureus): 256 µg/mL (≈ 638 µM)
- Sensibility [38]: R
- MIC ([38]; Staphylococcus aureus): 16 µg/mL (≈ 39.9 µM)
- Sensibility [39]: S
- MIC ([39]; Staphylococcus aureus): ≤ 0.25 µg/mL

SMILES: C[C@@H](O)[C@H]1C(=O)N2C(C(=O)O)=C(S[C@@H]3CN[C@H](C(=O)N(C)C)C3)[C@H](C)[C@H]12 [Meropenem]
- BMD (MIC) [21]: 64 µg/mL
- BMD (MIC) [22]: 32 µg/mL
- BMD (MIC) [23]: 32 µg/mL
- FaAST (MIC) [24]: 32 µg/mL
- FaAST (MIC) [25]: 4 µg/mL
- FaAST (MIC) [26]: 32 µg/mL
- FaAST (MIC) [27]: 64 µg/mL
- BMD (MIC) [28]: 0.5 µg/mL
- BMD (MIC) [29]: 0.25 µg/mL
- BMD (MIC) [30]: 0.25 µg/mL
- FaAST (MIC) [31]: 0.25 µg/mL
- FaAST (MIC) [32]: 0.25 µg/mL
